Laboratory results from patent US7649012B2, “Compounds, pharmaceutical compositions containing same, and methods of use for same” (FASgen, Inc., priority 2002, dated 2010).
≈ marks a conversion by molar mass, not a printed value. Read-outs that look alike come from different tables or passages of the source.

Tests used:
[1] = system: MCF-7 human breast cancer cells; assay: [14C]acetate incorporation into total lipids; type: cell-based; settings: for IC50: Homo sapiens, MCF7, [14C]acetate incorporation into lipids
Description: This assay measures the incorporation of [^14C]acetate into total lipids and is a measure of fatty acid synthesis pathway activity in vitro. It is utilized to measure inhibition of fatty acid synthesis in vitro.
MCF-7 human breast cancer cells cultured as above, are plated at 5×10^4 cells per well in 24-well plates. […] DMSO is added to triplicate wells for a vehicle control. C75 is run at 5 and 10 μg/ml in triplicate as positive controls. After 4 hours of incubation, 0.25 μCi of [^14C]acetate (10 μl volume) is added to each well.
After 2 hours of additional incubation, medium is aspirated from the wells and 800 μl of chloroform:methanol (2:1) and 700 μl of 4 mM MgCl2 is added to each well. Contents of each well are transferred to 1.5 Eppendorf tubes, and spun at full-speed for 2 minutes in a high-speed Eppendorf Microcentrifuge 5415D. After removal of the aqueous (upper) layer, an additional 700 μl of chloroform:methanol (2:1) and 500 μl of 4 mM MgCl2 are added to each tube and then centrifuged for 1 minutes as above. The aqueous layer is removed with a Pasteur pipette and discarded. An additional 400 μl of chloroform:methanol (2:1) and 200 μl of 4 mM MgCl2 are added to each tube, then centrifuged and aqueous layer is discarded. The lower (organic) phase is transferred into a scintillation vial and dried at 40° C. under N2 gas. Once dried, 3 ml of scintillant (APB #NBC5104) is added and vials are counted for ^14C. The Beckman Scintillation counter calculates the average cpm values for triplicates.
The IC50 for the compounds is defined as the concentration of drug leading to a 50% reduction in [^14C]acetate incorporation into lipids compared to controls. […] The average cpm values are computed by the Beckman scintillation counter (Model LS6500) for each compound concentration. Computation of linear regression, best-fit line, r^2, and 95% confidence intervals are calculated using Prism Version 3.0 (Graph Pad Software).

[2] = system: MCF-7 human breast cancer cells; assay: XTT cytotoxicity assay; type: cell-based; settings: MCF7, MCF-7, 72 hours, some cells marked (M)
Description: The XTT assay is a non-radioactive alternative for the [^51 Cr] release cytotoxicity assay. XTT is a tetrazolium salt that is reduced to a formazan dye only by metabolically active, viable cells. The reduction of XTT is measured spectrophotometrically as OD490-OD650.
To measure the cytotoxicity of specific compounds against cancer cells, 9×10^3 MCF-7 human breast cancer cells, obtained from the American Type Culture Collection are plated per well in 96 well plates in DMEM medium with 10% fetal bovine serum, insulin, penicillin, and streptomycin. Following overnight culture at 37° C. and 5% CO2, the compounds to be tested, dissolved in DMSO, are added to the wells in 1 μl volume at the following concentrations: 80, 40, 20, 10, 5, 2.5, 1.25, and 0.625 μg/ml in triplicate. Additional concentrations are tested if required. 1 μl of DMSO is added to triplicate wells are the vehicle control. C75 is run at 40, 20, […], and 5 μg/ml in triplicate as positive controls. After 72 hours of incubation, cells are incubated for 4 hours with the XTT reagent as per manufacturer's instructions (Cell Proliferation Kit II (XTT) Roche). Plates are read at OD490 and OD650 on a Molecular Devices SpectraMax Plus Spectrophotometer. Three wells containing the XTT reagent without cells serve as the plate blank. XTT data are reported as OD490-OD650-Averages and standard error of the mean are computed using SOFTmax Pro software (Molecular Dynamics).
The IC50 for the compounds is defined as the concentration of drug leading to a 50% reduction in OD490-OD650 compared to controls. The OD490-OD650 are computed by the SOFTmax PRO software (Molecular Devices) for each compound concentration. IC50 is calculated by linear regression, plotting the FAS activity as percent of control versus drug concentrations. Linear regression, best-fit line, r^2, and 95% confidence intervals are determined using Prism Version 3.0 (Graph Pad Software).

[3] = Weight loss screen in Balb/C mice; type: in vivo; settings: Mus musculus, ip, 72 h, 60 mg/kg intraperitoneally, day3; read-out: Weight Loss
Description: Balb/C mice (Jackson Labs) are utilized for the initial weight loss screening. Animals are housed in temperature and 12 hour day/night cycle rooms and fed mouse chow and water ad lib. Three mice are utilized for each compound tested with vehicle controls in triplicate per experiment. For the experiments, mice are housed separately for each compound tested three mice to a cage. […] Mice are observed and weighed daily; average weights and standard errors are computed with Excel (Microsoft). The experiment continues until treated animals reach their pretreatment weights. […]

[4] = system: Enterococcus faecalis (ATCC # 29212); assay: Broth microdilution MIC; type: cell-based; settings: for MIC: Enterococcus faecalis, ATCC29212
Description: (§1) A broth microdilution assay is used to assess the antimicrobial activity of the compounds. […] Microorganisms tested include Staphylococcus aureus (ATCC # 29213), Enterococcus faecalis (ATCC # 29212), Pseudomonas aeruginosa (ATCC # 27853), and Escherichia coli (ATCC # 25922). The assay is performed in two growth media, Mueller Hinton Broth and Trypticase Soy Broth. […] Colonies are suspended in sterile broth so that the turbidity matches the turbidity of a 0.5 McFarland standard. The inoculum is diluted 1:10 in sterile broth (Mueller Hinton or Trypticase soy) and 195 ul is dispensed per well of a 96-well plate. The compounds to be tested, dissolved in DMSO, are added to the wells in 5 ul volume at the following concentrations: 25, 12.5, 6.25, 3.125, 1.56 and 0.78 ug/ml in duplicate. Additional concentrations are tested if required. 5 ul of DMSO added to duplicate wells are the vehicle control. Serial dilutions of positive control compounds, vancomycin (E. faecalis and S. aureus) and tobramycin (E. coli and P. aeruginosa), are included in each run. After 24 hours of incubation at 37° C., plates are read at OD600 on a Molecular Devices SpectraMax Plus Spectrophotometer. Average OD600 values are computed using SOFTmax Pro Software (Molecular Devices) and MIC values are determined by linear regression analysis using Prism version 3.02 (Graph Pad Software, San Diego).

[5] = system: Escherichia coli (ATCC # 25922); assay: Broth microdilution MIC; type: cell-based; settings: for MIC: Escherichia coli, ATCC25922
Description: as §1

[6] = system: Pseudomonas aeruginosa (ATCC # 27853); assay: Broth microdilution MIC; type: cell-based; settings: for PSAE/MH(MIC): Mueller Hinton Broth; for PSAE/Tsoy(MIC): Trypticase Soy Broth
Description: as §1

[7] = system: Staphylococcus aureus (ATCC # 29213); assay: Broth microdilution MIC; type: cell-based; settings: for MIC: Staphylococcus aureus, ATCC29213
Description: as §1

[8] = Mueller Hinton Broth, read-out: EF/MH(MIC)
[9] = Trypticase Soy Broth, read-out: EF/Tsoy(MIC)
[10] = Trypticase Soy Broth, read-out: SA/Tsoy(MIC)
[11] = Mueller Hinton Broth, read-out: SA/MH(MIC)
[12] = Trypticase Soy Broth, read-out: Ecoli/Tsoy(MIC)

Row | Structure (SMILES) | 14C(IC50) ([1]; [14C]acetate incorporation into lipids) | IC50 [2] | change in vivo at 60 mg/kg [3] | IC50 [1] | MIC [4, 8] | MIC [4, 9] | Ecoli/MH(MIC) ([5]; Mueller Hinton Broth) | Ecoli/Tsoy(MIC) ([5]; Trypticase Soy Broth) | PSAE/MH(MIC) [6] | PSAE/Tsoy(MIC) [6] | SA/MH(MIC) ([7]; Mueller Hinton Broth) | MIC [7, 10] | MIC [7, 11] | EF/Tsoy(MIC) ([4]; Trypticase Soy Broth) | MIC [5, 12] | EF/MH(MIC) ([4]; Mueller Hinton Broth) | MIC ([5]; Mueller Hinton Broth, read-out: Ecoli/MH(MIC))
1 | CCCCCCCCC1(C)SC(=O)C=C1OCc1ccccc1 (centres unmarked) | Neg(stim) | 29.2 µg/mL (≈ 87.8 µM) | 5.2% | – | – | – | – | – | – | – | – | – | – | – | – | – | –
2 | C=CCC1(C)C(=O)S[C@](C)(CCCCCCCC)C1=O (mixture of isomers) | – | 50.4 ± 4.7 µg/mL | – | 14.9 µg/mL | 133 µg/mL | 91 µg/mL | Neg | Neg | Neg | Neg | Neg | 97 µg/mL | – | – | – | – | –
3 | CCCCCC[C@@]1(C)SC(=O)C=C1OCCCCCl (racemic) | – | 20.8 ± 0.9 µg/mL (≈ 68.2 µM) | – | 8.6 µg/mL (≈ 28.2 µM) | 117 µg/mL (≈ 384 µM) | 165 µg/mL (≈ 541 µM) | Neg | Neg | Neg | Neg | – | 50 µg/mL (≈ 164 µM) | 164 µg/mL (≈ 538 µM) | – | – | – | –
4 | CCCCCCCC[C@@]1(C)SC(=O)C=C1OCCCCCl (racemic) | – | 35.3 ± 2.2 µg/mL (≈ 106 µM) | – | 6.8 µg/mL (≈ 20.4 µM) | 64 µg/mL (≈ 192 µM) | – | Neg | Neg | Neg | Neg | – | 134 µg/mL (≈ 402 µM) | 115 µg/mL (≈ 345 µM) | Neg | – | – | –
5 | CCCCCC[C@@]1(C)SC(=O)C=C1OCC(=O)OCC (racemic) | – | 39.6 ± 2.2 µg/mL (≈ 132 µM) | – | 14.2 ± 0.2 µg/mL (≈ 47.3 µM) | 21.3 µg/mL (≈ 70.9 µM) | – | Neg | – | Neg | Neg | Neg | 129 µg/mL (≈ 429 µM) | – | Neg | 281 µg/mL (≈ 935 µM) | – | –
6 | CCCCCC[C@@]1(C)SC(=O)C=C1OCC(=O)NCC(=O)OC (racemic) | – | 40.5 ± 5.1 µg/mL (≈ 118 µM) | – | 9.8 µg/mL (≈ 28.5 µM) | – | – | – | Neg | Neg | Neg | – | 111 µg/mL (≈ 323 µM) | 69 µg/mL (≈ 201 µM) | Neg | – | Neg | 156 µg/mL (≈ 454 µM)
7 | CCCCCC[C@@]1(C)SC(=O)C=C1OCC(=O)NCCCBr (racemic) | – | 21.2 ± 1.1 µg/mL (≈ 54 µM) | – | 6.7 µg/mL (≈ 17.1 µM) | 99 µg/mL (≈ 252 µM) | 121 µg/mL (≈ 308 µM) | Neg | – | Neg | Neg | – | 237 µg/mL (≈ 604 µM) | 147 µg/mL (≈ 375 µM) | – | 293 µg/mL (≈ 747 µM) | – | –
8 | CCCCCCCC[C@@]1(C)SC(=O)C=C1OC(=O)CC (racemic) | – | 26.8 ± 0.6 µg/mL (≈ 89.8 µM) | – | 22.6 µg/mL (≈ 75.7 µM) | 102 µg/mL (≈ 342 µM) | 147 µg/mL (≈ 493 µM) | Neg | Neg | Neg | Neg | – | 62 µg/mL (≈ 208 µM) | 88 µg/mL (≈ 295 µM) | – | – | – | –
9 | CCCCCCCC[C@@]1(C)SC(=O)C(C(=O)C(F)(F)F)=C1O (racemic) | – | 18.4 ± 2.7 µg/mL (≈ 54.4 µM) | – | 14.7 µg/mL (≈ 43.4 µM) | – | – | – | – | Neg | Neg | – | 65 µg/mL (≈ 192 µM) | 54 µg/mL (≈ 160 µM) | – | – | – | –
10 | CCCCCCCC[C@@]1(C)SC(=O)C=C1OC(=O)NC(C)C (racemic) | – | 45.7 ± 25.9 µg/mL (≈ 140 µM) | – | 23.1 ± 13.2 µg/mL (≈ 70.5 µM) | 60 µg/mL (≈ 183 µM) | 64 µg/mL (≈ 195 µM) | Neg | Neg | Neg | Neg | – | 39 µg/mL (≈ 119 µM) | 32 µg/mL (≈ 97.7 µM) | – | – | – | –
